Patent US8614064B2, “Methods of diagnosing atherosclerosis by measuring ApoCI” (The Johns Hopkins University, priority 2003, dated 2013)

Legend:
Type in all cases: cell-based, human
ceramide = assay: Measurement of the ceramide level (diacylglycerol kinase assay) in ASMC
Procedure: FIGS. 4A-4D depict the effect of ApoCI, ApoCI-enriched HDL, and ApoCI-poor HDL on the level of ceramide in ASMC. Confluent ASMC were incubated with ApoCI (2.5 μg/mL) with time (FIG. 4A, upper left) or with ApoCI-enriched HDL (1 μg apoA-I/mL medium) or ApoCI-poor HDL (5 μg apoA-I/mL medium) (FIG. 4B, upper right) for 30 minutes. FIG. 4C: The cells were incubated with ApoCI alone ([…]) for 5 minutes or preincubated with GW4869 (20 μmol/L) for 30 minutes. After addition of ApoCI (2.5 μg/mL), incubation was continued for 6 hours, 12 hours, and 24 hours. After incubation, cells were harvested and the levels of ceramide determined using the diacylglycerol kinase assay. The level of phosphate was measured and the data (mean±SD) were expressed as percentage of the total ceramide present in untreated cells (vehicle DMSO). *P<0.05. In a separate experiment (FIG. 4D, right), confluent cells were grown on cover slips and pretreated with serum-free medium for 30 minutes. The cells were then incubated with vehicle DMSO alone (control), ApoCI (2.5 μg/ML), or ApoCI (2.5 μg/mL) plus the N-SMase inhibitor GW4869 (20 μmol/L) for 24 hours. The cells were then washed, treated with a primary anticeramide antibody, washed with phosphate-buffered saline, and treated with a fluorescein isothiocyanate-conjugated anti-mouse IgG (FIG. 4C, lower panel).
Cells were pelleted and extracted with chloroform-methanol-acetic acid 100:100:2 (v/v/v). Lipids in organic phase were dried in N2 atmosphere and re-extracted, and the organic phase was dried. Detergent solution (30 μl of 7.5%/n-octyl-β-glucopyranoside with 5 mM cardiolipin in 1 mM diethylenimine-pentaacetic acid) was added, and the samples were sonicated. Total inorganic phosphate level was measured employing the method of Bartlett et al. Bartlett, G R. (1959). J. Biol. Chem. 234, 449-458). Ceramide was measured using the sn-1, 2-diacylglycerolkinase-assay reagent system and labeling for 30 min with 1 mCi of [^32P] ATP in 10 μl of 5 mM ATP (Signorelli, P., and Hannun, Y. A. (2002) Meth. Enzymol. 345, 275-294). Diacylglycerol kinase was from Streptomyces species (Calbiochem, San Diego, Calif.). [^32P] ATP (specific activity 3000 Ci/mmol) was from New England Nuclear Company (Boston, Mass.). Ceramide-1-phosphate and diacylglycerol-1-phosphate were resolved by thin-layer chromatography on silica gel plates (Whatman, Clinton, N.J.), using a solvent composed of chloroform-acetone-methanol-acetic acid-water 10:4:3:2:1(v/v) and detected by autoradiography using an Instant Imager (Packard Canberra Company). Ceramide was expressed as pmol ceramide/nmol phosphate.

caspase-3 = assay: Caspase-3 level, Western immunoblot, ASMC; conditions: compared with control medium; ApoCI and ApoCIII 2.5 μg/ml, ApoCI-enriched HDL 1 μg apoA-I/ml, ApoCI-poor HDL 5 μg apoA-I/ml
Procedure: After incubation with ApoCI (2.5 μg/ml medium), ApoCIII (2.5 μg/ml medium), apoC-1-enriched HDL (1 μg apoA-I/ml medium), or ApoCI-poor HDL (5 μg ApoA-I/ml medium) for 24 h and 48 h, the cells were subjected to extraction with a buffer (30 mM HEPES, pH 7.5, 10 mM KCl, 1.5 mM MgCl2, 5 mM DTI, 2 mM phenylmethylsulfonyl fluoride (PMSF), 1% Nonidet P-40, 0.5% sodium deoxycholate, 0.1% SDS, 2 μg/ml leupeptin, 2 μg/ml aprotinin, 0.5 μg/ml benzamidine, and 250 mM sucrose) on ice for 30 min. Next, the samples were centrifuged at 10,000×g at 4° C. The supernatant was utilized as a source of cytochrome c in Western immunoblot assay. The pellets were lysed in RIPA buffer (phosphate buffer saline, 1% Nonidet P-40, 0.5% sodium deoxycholate, 0.1% SDS, and cocktail of inhibitors described above). The samples were passed through a 21-gauge needle to shear the DNA. Next, 10 μl of PMSF (10 mg/ml) was added and incubation continued for 60 min on ice. The samples were centrifuged at 10,000-×g for 10 min at 4° C. The supernatants were used as a source of protein in Western immunoblot assay for determination of caspase activation. Proteins (100 μg) were separated using 4-15% SDS-polyacrylamide gel under denaturing conditions and electro transferred onto nitrocellulose. […]

cytochrome c = assay: Cytochrome c release, Western immunoblot with densitometric scanning, ASMC; conditions: 24 h; ApoCI and ApoCIII 2.5 μg/mL, ApoCI-enriched HDL 1 μg apoA-I/mL
Procedure: FIGS. 5A-5C depict the effect of ApoCI, ApoCIII, ApoCI-enriched HDL, and GW4869 on cytochrome c release in ASMC. After treatment of confluent cells for 24 hours with ApoCI (2.5 μg/mL medium), ApoCIII (2.5 μg/mL medium), or ApoCI-enriched HDL (1 μg apoA-I/mL medium), the cells were lysed. The cell lysate was used as the source of cytochrome c, and the pellet was used as a source of caspase-3. The cell lysates were separated by SDS-polyacrylamide gel electrophoresis, blotted onto nitrocellulose, and cytochrome c detected using a polyclonal antibody against cytochrome c (FIG. 5A, top panel). The gels were then subjected to densitometric scanning (FIG. 5B, middle panel). In a separate experiment (FIG. 5C, right), confluent cells were grown on cover slips and pretreated with serum-free medium for 30 minutes. The cells were then incubated with control medium, ApoCI (2.5 μg/mL medium), TNF-α (20 ng/mL), or ApoCI (2.5 μg/mL)+GW4869 (20 μmol/L) for 24 hours. The cells were then washed, treated with a primary anti-cytochrome c antibody, washed with phosphate-buffered saline, and treated with a fluorescein isothiocyanate-conjugated anti-rabbit IgG (FIG. 5C, lower panel). […]

Row | effect of GW4869 on ApoCI-induced ceramide production, 24 hours (ceramide; GW4869 20 μmol/L, 24 hours) | effect of GW4869 on cellular level of ceramide induced by ApoCI, 5 minutes and 6 hours (ceramide; GW4869 20 μmol/L, after 5 minutes and 6 hours of incubation) | effect of GW4869 on ApoCI-induced ceramide production, 12 hours (ceramide; GW4869 20 μmol/L, after 12 hours of incubation) | maximum increase in ceramide level by ApoCI (ceramide; ApoCI 2.5 μg/mL, by 5 minutes) [fold] | Molecule | stimulation of caspase-3 level/expression (caspase-3) | stimulation of the release of cytochrome c (cytochrome c) [fold]
1 | reversed it to a high level | significantly decreased | completely inhibited |  | O=C(/C=C/c1ccc(/C=C/C(=O)Nc2ccc(C3=NCCN3)cc2)cc1)Nc1ccc(C2=NCCN2)cc1 [GW4869] |  | 
2 |  |  |  |  | ApoCIII: purified human ApoCIII purchased from Academy Bio-Medical Company, used as negative control | to a lesser extent than ApoCI-enriched HDL | 2.3
3 |  |  |  | 1.7 | Apolipoprotein C-I (TPDVSSALDKLKEFGNTLEDKARELISRIKQSELSAKMREWFSETFQKVKEKLKIDS; UniProt P02654 27-83, looked up) [ApoCI, 6.6-kDa single-chain plasma protein of 57 amino acids; purified human ApoCI purchased from Academy Bio-Medical Company] | 4 fold | 4.1
